Organism: Rattus norvegicus
Assay: Open TG-GATES - Regimen: Daily Repeat
Type: toxicity, organism-based, Sprague-Dawley
Design: regimen Daily Repeat, gender Male, age 6 weeks
Conditions: in vivo, po, 100 mg/kg, route gavage, dose level Low; for APTT / Bas / Eos / Fbg / Hb / Ht / Lym / MCH / MCHC / MCV / Mono / Neu / PT / Plat / RBC / Ret / WBC: tissue Blood; for KIDNEY_L / KIDNEY_R / KIDNEY_TOTAL: tissue Kidney; for LIVER: tissue Liver; for A/G / ALP / ALT / AST / BUN / CRE / Ca / Cl / DBIL / GLC / IP / K / LDH / Na / PL / RALB / TBIL / TC / TG / TP / gamma-GTP: tissue Plasma

C[C@H]1O[C@H](O[C@H]2[C@H](O)[C@@H](O)[C@@H](O[C@H]3[C@H](O)[C@@H](O)C(O)O[C@@H]3CO)O[C@@H]2CO)[C@H](O)[C@@H](O)[C@@H]1N[C@H]1C=C(CO)[C@@H](O)[C@H](O)[C@H]1O (some centres not stated) [ACARBOSE]
TERMINAL_BW (72 h, time 3 day): 233.2 g
APTT (72 h, time 3 day): 17.1 s
Bas (72 h, time 3 day): 0%
Eos (72 h, time 3 day): 1%
Fbg (72 h, time 3 day): 279.2 mg/dL
Hb (72 h, time 3 day): 13.2 g/dL
Ht (72 h, time 3 day): 39.4%
Lym (72 h, time 3 day): 79.4%
MCH (72 h, time 3 day): 20.4 pg
MCHC (72 h, time 3 day): 33.5%
MCV (72 h, time 3 day): 61 fL
Mono (72 h, time 3 day): 2.6%
Neu (72 h, time 3 day): 15.4%
PT (72 h, time 3 day): 13.3 s
Plat (72 h, time 3 day): 126 x10_4/uL
RBC (72 h, time 3 day): 646.8 x10_4/ul
Ret (72 h, time 3 day): 6.7%
WBC (72 h, time 3 day): 97.6 x10_2/uL
KIDNEY_L (72 h, time 3 day): 1 g
KIDNEY_R (72 h, time 3 day): 1 g
KIDNEY_TOTAL (72 h, time 3 day): 2.1 g
LIVER (72 h, time 3 day): 11.3 g
A/G (72 h, time 3 day): 0.9
ALP (72 h, time 3 day): 1544.2 IU/L
ALT (72 h, time 3 day): 40.2 IU/L
AST (72 h, time 3 day): 70.2 IU/L
BUN (72 h, time 3 day): 13.8 mg/dL
CRE (72 h, time 3 day): 0.2 mg/dL
Ca (72 h, time 3 day): 10.7 mg/dL
Cl (72 h, time 3 day): 103.8 meq/L
DBIL (72 h, time 3 day): 0.01 mg/dL
GLC (72 h, time 3 day): 182 mg/dL
IP (72 h, time 3 day): 7.5 mg/dL
K (72 h, time 3 day): 3.9 meq/L
LDH (72 h, time 3 day): 84.2 IU/L
Na (72 h, time 3 day): 140.6 meq/L
PL (72 h, time 3 day): 142.4 mg/dL
RALB (72 h, time 3 day): 2.6 g/dL
TBIL (72 h, time 3 day): 0.056 mg/dL
TC (72 h, time 3 day): 72.2 mg/dL
TG (72 h, time 3 day): 101.8 mg/dL
TP (72 h, time 3 day): 5.6 g/dL
gamma-GTP (72 h, time 3 day): 1 IU/L
TERMINAL_BW ([…], time 7 day): 267.4 g
TERMINAL_BW ([…], time 14 day): 335.4 g
TERMINAL_BW ([…], time 28 day): 407.8 g
APTT ([…], time 7 day): 17.6 s
Bas ([…], time 7 day): 0%
Eos ([…], time 7 day): 1%
Fbg ([…], time 7 day): 291.8 mg/dL
Hb ([…], time 7 day): 13.8 g/dL
Ht ([…], time 7 day): 40.9%
Lym ([…], time 7 day): 73.6%
MCH ([…], time 7 day): 21.2 pg
MCHC ([…], time 7 day): 33.6%
MCV ([…], time 7 day): 63 fL
Mono ([…], time 7 day): 3%
Neu ([…], time 7 day): 21.6%
PT ([…], time 7 day): 12.9 s
Plat ([…], time 7 day): 130.6 x10_4/uL
RBC ([…], time 7 day): 649.8 x10_4/ul
Ret ([…], time 7 day): 6.1%
WBC ([…], time 7 day): 81.1 x10_2/uL
APTT ([…], time 14 day): 17.6 s
Bas ([…], time 14 day): 0%
Eos ([…], time 14 day): 1.4%
Fbg ([…], time 14 day): 290.2 mg/dL
Hb ([…], time 14 day): 14.9 g/dL
Ht ([…], time 14 day): 44.1%
Lym ([…], time 14 day): 80.6%
MCH ([…], time 14 day): 20.7 pg
MCHC ([…], time 14 day): 33.7%
MCV ([…], time 14 day): 61.4 fL
Mono ([…], time 14 day): 2.6%
Neu ([…], time 14 day): 15%
PT ([…], time 14 day): 13.2 s
Plat ([…], time 14 day): 126.6 x10_4/uL
RBC ([…], time 14 day): 719.2 x10_4/ul
Ret ([…], time 14 day): 4.4%
WBC ([…], time 14 day): 98.7 x10_2/uL
APTT ([…], time 28 day): 18.7 s
Bas ([…], time 28 day): 0%
Eos ([…], time 28 day): 1%
Fbg ([…], time 28 day): 301 mg/dL
Hb ([…], time 28 day): 15.3 g/dL
Ht ([…], time 28 day): 44%
Lym ([…], time 28 day): 78.8%
MCH ([…], time 28 day): 19.6 pg
MCHC ([…], time 28 day): 34.7%
MCV ([…], time 28 day): 56.4 fL
Mono ([…], time 28 day): 1.4%
Neu ([…], time 28 day): 17.4%
PT ([…], time 28 day): 13.3 s
Plat ([…], time 28 day): 103.6 x10_4/uL
RBC ([…], time 28 day): 780.8 x10_4/ul
Ret ([…], time 28 day): 2.4%
WBC ([…], time 28 day): 101.5 x10_2/uL
KIDNEY_L ([…], time 7 day): 1.1 g
KIDNEY_R ([…], time 7 day): 1.1 g
KIDNEY_TOTAL ([…], time 7 day): 2.2 g
KIDNEY_L ([…], time 14 day): 1.3 g
KIDNEY_R ([…], time 14 day): 1.3 g
KIDNEY_TOTAL ([…], time 14 day): 2.6 g
KIDNEY_L ([…], time 28 day): 1.5 g
KIDNEY_R ([…], time 28 day): 1.4 g
KIDNEY_TOTAL ([…], time 28 day): 2.9 g
LIVER ([…], time 7 day): 12.2 g
LIVER ([…], time 14 day): 15.3 g
LIVER ([…], time 28 day): 16.8 g
A/G ([…], time 7 day): 0.9
ALP ([…], time 7 day): 1544.4 IU/L
ALT ([…], time 7 day): 44 IU/L
AST ([…], time 7 day): 73.2 IU/L
BUN ([…], time 7 day): 15.8 mg/dL
CRE ([…], time 7 day): 0.2 mg/dL
Ca ([…], time 7 day): 10.9 mg/dL
Cl ([…], time 7 day): 104.2 meq/L
DBIL ([…], time 7 day): 0.008 mg/dL
GLC ([…], time 7 day): 176.4 mg/dL
IP ([…], time 7 day): 7.4 mg/dL
K ([…], time 7 day): 3.8 meq/L
LDH ([…], time 7 day): 76.8 IU/L
Na ([…], time 7 day): 141.8 meq/L
PL ([…], time 7 day): 148.4 mg/dL
RALB ([…], time 7 day): 2.6 g/dL
TBIL ([…], time 7 day): 0.052 mg/dL
TC ([…], time 7 day): 74.6 mg/dL
TG ([…], time 7 day): 103.6 mg/dL
TP ([…], time 7 day): 5.7 g/dL
gamma-GTP ([…], time 7 day): 0.8 IU/L
A/G ([…], time 14 day): 0.8
ALP ([…], time 14 day): 1438.4 IU/L
ALT ([…], time 14 day): 36.2 IU/L
AST ([…], time 14 day): 62.8 IU/L
BUN ([…], time 14 day): 16 mg/dL
CRE ([…], time 14 day): 0.2 mg/dL
Ca ([…], time 14 day): 10.9 mg/dL
Cl ([…], time 14 day): 104.2 meq/L
DBIL ([…], time 14 day): 0.01 mg/dL
GLC ([…], time 14 day): 182 mg/dL
IP ([…], time 14 day): 6.7 mg/dL
K ([…], time 14 day): 4.2 meq/L
LDH ([…], time 14 day): 119.4 IU/L
Na ([…], time 14 day): 141.8 meq/L
PL ([…], time 14 day): 153.4 mg/dL
RALB ([…], time 14 day): 2.7 g/dL
TBIL ([…], time 14 day): 0.052 mg/dL
TC ([…], time 14 day): 75.4 mg/dL
TG ([…], time 14 day): 146.8 mg/dL
TP ([…], time 14 day): 6 g/dL
gamma-GTP ([…], time 14 day): 1 IU/L
A/G ([…], time 28 day): 0.8
ALP ([…], time 28 day): 1221 IU/L
ALT ([…], time 28 day): 36.8 IU/L
AST ([…], time 28 day): 66.2 IU/L
BUN ([…], time 28 day): 17 mg/dL
CRE ([…], time 28 day): 0.2 mg/dL
Ca ([…], time 28 day): 10.8 mg/dL
Cl ([…], time 28 day): 104.8 meq/L
DBIL ([…], time 28 day): 0.018 mg/dL
GLC ([…], time 28 day): 179.8 mg/dL
IP ([…], time 28 day): 6.4 mg/dL
K ([…], time 28 day): 4.1 meq/L
LDH ([…], time 28 day): 79.6 IU/L
Na ([…], time 28 day): 142.4 meq/L
PL ([…], time 28 day): 149.2 mg/dL
RALB ([…], time 28 day): 2.8 g/dL
TBIL ([…], time 28 day): 0.056 mg/dL
TC ([…], time 28 day): 70 mg/dL
TG ([…], time 28 day): 156 mg/dL
TP ([…], time 28 day): 6.2 g/dL
gamma-GTP ([…], time 28 day): 1 IU/L
